US11998558B2, “Synthetic composition for treating antibiotic associated complications” (GLYCOM A/S, priority 2015, dated 2024)

What was measured:
[1] = system: B. adolescentis phylogenetic group; assay: Healthy adult study, ITS profiling of the Bifidobacterium community in faecal samples; type: in vivo, human; details: healthy adults
Procedure: (§1) A total of 100 male and female healthy adults are recruited to participate in the study. After a screening visit and run-in period of 1-2 weeks, the participants are selected and randomized into ten groups, each of 10 subjects. One group is administered daily a placebo product containing 2 grams of glucose. The remaining 9 groups are administered daily a treatment product containing one of the following: a) 20 g of 2′-FL, b) 10 g of 2′-FL, c) 5 g of 2′-FL, d) 20 g of LNnT, e) 10 g of LNnT, f) 5 g of LNnT, g) 20 g of a 2:1 mixture of 2′-FL and LNnT, h) 10 g of a 2:1 mixture of 2′-FL and LNnT, and i) 5 g of a 2:1 mixture of 2′-FL and LNnT for 2 weeks. The placebo and treatment products are in powder form in a unit dosage container.
(§2) The study runs for 2 weeks with the participants consuming either a placebo or a treatment product daily. Participants are instructed to consume the products in the morning with breakfast. Compliance is monitored through the interactive internet enabled system.
(§3) To assess the Bifidobacterium community, ITS profiling of DNA samples is performed according to Milani et al, FEMS Microbiol. Ecol. 90, 493 (2014). […] Both B. adolescentis and B. pseudocatenulatum are members of the B. adolescentis phylogenetic group. It can be seen that oral ingestion of the HMOs clearly increases the abundance of B. adolescentis and/or B. pseudocatenulatum in the microbiota of healthy adults, as well as its relative abundance compared to the totality of other Bifidobacterium species.

[2] = system: totality of B. longum + B. bifidum + B. animalis lactis + B. angulatum; assay: as above; type: in vivo, human; details: healthy adults
Procedure: as §1, §2, §3

Compound	percentage increase of B. adolescentis phylogenetic group in human faeces after consumption of HMOs ([1]; 5 g daily for 2 weeks) [%]	percentage increase of B. adolescentis phylogenetic group in human faeces after consumption of HMOs ([1]; 10 g daily for 2 weeks) [%]	percentage increase of B. adolescentis phylogenetic group in human faeces after consumption of HMOs ([1]; 20 g daily for 2 weeks) [%]	percentage increase of totality of B. longum + B. bifidum + B. animalis lactis + B. angulatum in human faeces after consumption of HMOs ([2]; 5 g daily for 2 weeks) [%]	percentage increase of totality of B. longum + B. bifidum + B. animalis lactis + B. angulatum in human faeces after consumption of HMOs ([2]; 10 g daily for 2 weeks) [%]	percentage increase of totality of B. longum + B. bifidum + B. animalis lactis + B. angulatum in human faeces after consumption of HMOs ([2]; 20 g daily for 2 weeks) [%]
2′-fucosyllactose [2′-FL]	50	325	120	0	20	15
CC(=O)N[C@H]1[C@H](O[C@H]2[C@@H](O)[C@@H](CO)O[C@@H](O[C@H]3[C@H](O)[C@@H](O)C(O)O[C@@H]3CO)[C@@H]2O)O[C@H](CO)[C@@H](O[C@@H]2O[C@H](CO)[C@H](O)[C@H](O)[C@H]2O)[C@@H]1O (mixture of isomers) [LNnT, lacto-N-neotetraose]	90	195	185	50	130	105
